The numbers were not newly measured in US20060160157A1, “Method, compositions and classification for tumor diagnostics and treatment” (priority 2005, published 2006), which cites them from elsewhere.

The conditions of data set [1]: pH change 7.5 to 4.0.
In another data set the target is GRP-R (Homo sapiens, UniProt P30550). To be noted: radiolabeled bombesin as radioligand.
GRP-R, sequence (P30550 whole entry, species assumed): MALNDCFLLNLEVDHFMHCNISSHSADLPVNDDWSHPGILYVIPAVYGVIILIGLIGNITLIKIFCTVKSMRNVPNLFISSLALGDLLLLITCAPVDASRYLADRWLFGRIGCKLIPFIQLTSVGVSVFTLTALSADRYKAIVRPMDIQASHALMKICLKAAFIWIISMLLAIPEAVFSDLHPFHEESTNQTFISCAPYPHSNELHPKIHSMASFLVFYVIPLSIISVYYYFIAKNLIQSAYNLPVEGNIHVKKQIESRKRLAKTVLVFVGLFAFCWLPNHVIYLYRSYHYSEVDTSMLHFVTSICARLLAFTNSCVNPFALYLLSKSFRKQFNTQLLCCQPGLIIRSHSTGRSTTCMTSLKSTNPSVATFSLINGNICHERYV

Consider growth hormone, for which, in data set [1], the “change in the ka rate constant (association)” value is reported as 1.7 times and the “change in the kd rate constant (dissociation)” value is on record as 1,600 times.
For neuromedin, the “GRP-R binding selectivity (rank order of affinity)” value at GRP-R is recorded as “GRP >bombesin> neuromedin”.
